Here are results for one compound from ChEMBL document CHEMBL1649342, “Synthesis of azafluorenone antimicrobial agents” (2010).

Converted amounts (≈) assume the structure as drawn.

What all share (format): functional
The subject of one test is Saccharomyces cerevisiae. Nature of the test: Antimicrobial activity against Saccharomyces cerevisiae IFO 0203.
For a further test, the system named is Bacillus subtilis. Nature of the test: Antimicrobial activity against Bacillus subtilis IFO 3007.
A further test concerns Candida albicans. As to the kind of experiment: Antimicrobial activity against Candida albicans B311.
For the next test, the system named is Staphylococcus aureus. Nature of the test: Antimicrobial activity against Staphylococcus aureus NCTC 8530.
Another test relates to Escherichia coli. Nature of the test: Antimicrobial activity against Escherichia coli IFO 3545.

A word on the MIC: it is the lowest concentration found to suppress growth. Read a high MIC as a less susceptible organism. As for `Cc1ccnc2c1C(=O)c1ccccc1-2` [ONYCHINE], the MIC came to 50 µg/mL (≈ 256 µM) against Saccharomyces cerevisiae; 50 µg/mL (≈ 256 µM) in the test with Bacillus subtilis; 3.12 µg/mL (≈ 16 µM) against Candida albicans; 50 µg/mL (≈ 256 µM) against Staphylococcus aureus; 50 µg/mL (≈ 256 µM) against Escherichia coli.
